Laboratory results as given in BindingDB's records for doi:10.1016/S0960-894X(01)80506-0 (n/a, 1994).

How the values were obtained:
Beta-lactamase TEM = Beta-lactamase TEM (Escherichia coli, UniProt P62593); assay: Concentration required for its inhibitory activity against Escherichia coli JT4(TEM1) class A beta-lactamase
Beta-lactamase [1] = biological target: Beta-lactamase (Pseudomonas aeruginosa (strain ATCC 15692 / DSM 22644 / CIP 104116 / JCM 14847 / LMG 12228 / 1C / PRS 101 / PAO1), UniProt P24735); assay: Concentration required for its inhibitory activity against Pseudomonas aeruginosa class C beta-lactamase
Beta-lactamase [2] = biological target: Beta-lactamase (Enterobacter cloacae, UniProt P05364); assay: Concentration required for its inhibitory activity against Enterobacter cloacae P99 class C beta-lactamase
Beta-lactamase [3] = biological target: T1, Beta-lactamase (Escherichia coli, UniProt Q2V0Y6); assay: Concentration required for its inhibitory activity against Escherichia coli K12(PSE4) class A beta-lactamase
T1 sequence (Q2V0Y6 whole entry): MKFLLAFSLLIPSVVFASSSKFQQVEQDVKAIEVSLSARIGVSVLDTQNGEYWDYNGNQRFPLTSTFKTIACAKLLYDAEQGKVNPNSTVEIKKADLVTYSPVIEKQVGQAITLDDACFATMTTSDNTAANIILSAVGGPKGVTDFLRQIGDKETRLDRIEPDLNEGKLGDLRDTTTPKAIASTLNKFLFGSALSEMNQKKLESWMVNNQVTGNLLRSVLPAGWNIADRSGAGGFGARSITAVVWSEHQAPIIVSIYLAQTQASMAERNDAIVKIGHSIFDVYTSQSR

Beta-lactamase [4] = biological target: T2, Beta-lactamase (Proteus mirabilis, UniProt P30897); assay: Concentration required for its inhibitory activity against Proteus mirabilis C889 class A beta-lactamase
T2 sequence (P30897 whole entry): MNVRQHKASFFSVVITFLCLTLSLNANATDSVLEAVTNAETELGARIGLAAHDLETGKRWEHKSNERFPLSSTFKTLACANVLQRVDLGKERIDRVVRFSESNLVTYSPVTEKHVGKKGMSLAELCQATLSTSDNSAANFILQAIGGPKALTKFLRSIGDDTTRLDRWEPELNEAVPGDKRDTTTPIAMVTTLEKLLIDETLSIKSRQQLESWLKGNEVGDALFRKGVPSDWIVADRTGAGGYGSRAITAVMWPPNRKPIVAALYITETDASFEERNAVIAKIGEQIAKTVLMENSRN

Beta-lactamase OXA-1 = Beta-lactamase OXA-1 (Escherichia coli, UniProt P13661); assay: Concentration required for its inhibitory activity against Escherichia coli K12(OXA1) class D beta-lactamase
Beta-lactamase OXA-1, sequence (P13661 whole entry): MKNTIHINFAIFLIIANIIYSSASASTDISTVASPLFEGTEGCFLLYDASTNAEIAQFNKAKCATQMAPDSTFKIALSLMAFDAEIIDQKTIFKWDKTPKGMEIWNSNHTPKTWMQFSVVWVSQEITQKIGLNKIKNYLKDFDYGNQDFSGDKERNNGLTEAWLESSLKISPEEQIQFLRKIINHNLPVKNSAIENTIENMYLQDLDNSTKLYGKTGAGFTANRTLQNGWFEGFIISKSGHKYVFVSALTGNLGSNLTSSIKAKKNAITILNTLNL

Beta-lactamase (Pseudomonas aeruginosa (strain ATCC 15692 / DSM 22644 / CIP 104116 / JCM 14847 / LMG 12228 / 1C / PRS 101 / PAO1), UniProt P24735), sequence (P24735 whole entry): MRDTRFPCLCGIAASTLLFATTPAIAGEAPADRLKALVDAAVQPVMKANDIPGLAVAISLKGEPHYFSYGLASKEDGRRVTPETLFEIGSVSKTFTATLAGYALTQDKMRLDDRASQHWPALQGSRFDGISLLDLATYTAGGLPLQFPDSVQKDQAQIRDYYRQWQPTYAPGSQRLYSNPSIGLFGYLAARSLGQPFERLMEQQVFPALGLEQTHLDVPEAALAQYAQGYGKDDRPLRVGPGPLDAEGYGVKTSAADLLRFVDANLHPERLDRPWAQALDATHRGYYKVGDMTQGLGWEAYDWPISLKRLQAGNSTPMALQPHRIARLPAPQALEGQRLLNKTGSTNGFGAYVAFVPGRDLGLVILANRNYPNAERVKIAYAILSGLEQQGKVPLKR
Beta-lactamase TEM, sequence (P62593 whole entry): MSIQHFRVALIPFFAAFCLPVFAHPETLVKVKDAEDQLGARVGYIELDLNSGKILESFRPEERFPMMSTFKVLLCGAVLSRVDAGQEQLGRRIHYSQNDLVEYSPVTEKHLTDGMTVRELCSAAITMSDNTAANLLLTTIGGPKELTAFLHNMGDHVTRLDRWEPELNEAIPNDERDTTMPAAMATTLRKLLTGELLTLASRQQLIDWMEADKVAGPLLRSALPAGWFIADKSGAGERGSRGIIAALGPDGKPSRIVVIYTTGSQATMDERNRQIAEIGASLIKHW
Beta-lactamase (Enterobacter cloacae, UniProt P05364), sequence (P05364 whole entry): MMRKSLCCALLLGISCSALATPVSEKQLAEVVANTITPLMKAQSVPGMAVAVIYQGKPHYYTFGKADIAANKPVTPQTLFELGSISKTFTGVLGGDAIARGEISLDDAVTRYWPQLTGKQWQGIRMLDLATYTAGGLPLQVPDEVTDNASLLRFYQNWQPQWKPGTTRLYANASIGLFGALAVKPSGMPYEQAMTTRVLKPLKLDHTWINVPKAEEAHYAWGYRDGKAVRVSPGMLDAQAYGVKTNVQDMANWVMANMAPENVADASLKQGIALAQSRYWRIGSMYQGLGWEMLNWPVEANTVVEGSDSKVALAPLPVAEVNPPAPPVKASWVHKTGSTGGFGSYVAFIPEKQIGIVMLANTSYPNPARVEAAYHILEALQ

| SMILES | IC50 (Beta-lactamase TEM) [µM] | IC50 (Beta-lactamase [1]) [µM] | IC50 (Beta-lactamase [2]) [µM] | IC50 (Beta-lactamase [3]) [µM] | IC50 (Beta-lactamase [4]) [µM] | IC50 (Beta-lactamase OXA-1) [µM] |
| --- | --- | --- | --- | --- | --- | --- |
| CC(C)CCCCCCCCCCCCCc1cccc(O)c1C(=O)O | 26.7 | 44.1 | 24.8 | – | – | – |
| CC/C=C\C/C=C\C/C=C\CCCCCCCc1cccc(O)c1C(=O)O | 13.4 | – | 45.8 | 26.9 | – | – |
| CCC(C)CCCCCCCCCCCCc1cccc(O)c1C(=O)O (centres undefined) | 27.5 | 99.2 | 85.5 | – | – | – |
| CCCCCCCCCCc1ccccc1C(=O)O | 68.6 | – | – | – | – | – |
| CCCCCCCCCCCCCCCc1cccc(OC)c1C(=O)O | 2.2 | 30.3 | 6.89 | 1.65 | 60.6 | > 91 |
| CCCCCCCCCCCCCCCc1cccc(O)c1O | – | – | 90.4 | – | – | – |
| CCCCCCCCCCc1cccc(O)c1O | – | – | 83.8 | – | – | – |
| CCCCCCCCCCc1cccc(O)c1 | 8.1 | – | 19.1 | 17.4 | – | – |
| CCCCCCCCCCCCCCCCCc1cccc(O)c1C(=O)O | 5.04 | 24.1 | 2.65 | 1.85 | 22 | 77 |
| CCCCCCCCc1cccc(O)c1C(=O)O | – | – | – | 63.9 | 15.5 | – |
| CCCCCCCCCCc1cccc(O)c1C(=O)O | 43.1 | – | – | – | – | – |
| CCCCCCCCCCCCCCCc1cccc(O)c1 [3-pentadecylphenol] | – | – | 23.6 | 65.6 | – | – |
| C=CC/C=C\C/C=C\CCCCCCCc1cccc(O)c1C(=O)O [6-[8(Z),11(Z),14-pentadecatrienyl]salicylic acid] | 2.33 | 21 | 4.08 | 3.21 | 90.5 | 72.9 |
| O=C(O)[C@H]1/C(=C/CO)O[C@@H]2CC(=O)N21 [antibiotic MM 14151] | – | – | – | – | – | 1.75 |
